Laboratory results taken from patent US8557233B2, “Probiotic bifidobacterium strains” (Alimentary Heath Limited, priority 2007, dated 2013).

Test system: B. longum AH1206
Test: Minimum inhibitory concentration (MIC) of antibiotics
Assay type: cell-based, Bifidobacterium longum
Details: against B. longum AH1206
Description: Antibiotic sensitivity profiles of the B. longum strain was determined using the ‘disc susceptibility’ assay. Cultures were grown up in the appropriate broth medium for 24-48 h spread-plated (100 μl) onto agar media and discs containing known concentrations of the antibiotics were placed onto the agar. Strains were examined for antibiotic sensitivity after 1-2 days incubation at 37° C. under anaerobic conditions. Strains were considered sensitive if zones of inhibition of 1 mm or greater were seen. The minimum inhibitory concentration (MIC) for each antibiotic was independently assessed.

SMILES | minimum inhibitory concentration (MIC)
Cc1ncc([N+](=O)[O-])n1CCO [metronidazole] | 0.38
CCC[C@@H]1C[C@@H](C(=O)N[C@@H]([C@H]2O[C@H](SC)[C@H](O)[C@@H](O)[C@H]2O)[C@H](C)Cl)N(C)C1 [clindamycin] | 0.32
CN[C@H](CC(C)C)C(=O)N[C@H]1C(=O)N[C@@H](CC(N)=O)C(=O)N[C@H]2C(=O)N[C@H]3C(=O)N[C@H](C(=O)N[C@H](C(=O)O)c4cc(O)cc(O)c4-c4cc3ccc4O)[C@H](O)c3ccc(c(Cl)c3)Oc3cc2cc(c3O[C@@H]2O[C@H](CO)[C@@H](O)[C@H](O)[C@H]2O[C@H]2C[C@](C)(N)[C@H](O)[C@H](C)O2)Oc2ccc(cc2Cl)[C@H]1O [vancomycin] | 0.75
